Laboratory results taken from PMC5271319, “Identification and Characterization of a 25 kDa Protein That Is Indispensable for the Efficient Saccharification of Eisenia bicyclis in the Digestive Fluid of Aplysia kurodai” (PLoS ONE, 2017).

Target: T1, EHEP (Eisenia hydrolysis enhancing protein, 25 kDa) (Aplysia kurodai, UniProt A0A1B4XTR1)
T1 construct: native protein purified from digestive fluid; signal peptide 1-16 predicted to be removed; 25 kDa monomer
T1 sequence (A0A1B4XTR1 17-229): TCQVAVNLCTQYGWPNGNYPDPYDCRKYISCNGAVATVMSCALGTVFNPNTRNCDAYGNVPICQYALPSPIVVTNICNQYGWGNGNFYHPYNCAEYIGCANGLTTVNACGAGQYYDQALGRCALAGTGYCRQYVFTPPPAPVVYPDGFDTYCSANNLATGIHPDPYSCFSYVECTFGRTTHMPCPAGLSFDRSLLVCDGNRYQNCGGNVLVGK
Assay: co-precipitation, SDS-PAGE of precipitate
Format: binding
Details: 50 and 100 μg in 0.1 ml; 50 mM acetate pH 5.5, 0.1 M NaCl, 10 mM CaCl2; 25 °C, 90 min

## O=C(O)c1cc(O)c(O)c(O)c1 [gallic acid]
  co-precipitation, SDS-PAGE of precipitate: EHEP was precipitated by phloroglucinol and gallic acid

## Oc1cc(O)cc(O)c1 [phloroglucinol, 1,3,5-trihydroxybenzene]
  co-precipitation, SDS-PAGE of precipitate: EHEP was precipitated by phloroglucinol and gallic acid
